Experimental data taken from ChEMBL document CHEMBL3044846, “Synthesis and structureactivity relationships of serotonin derivatives effect on -glucosidase inhibition” (Med Chem Res, 2012).
pIC50, pKi: −log10 of the molar value. Calls of active or inactive are those of the source. The rule behind the calls is not given here.

Assays:
Alpha-glucosidase MAL62 [1] = biological target: T1, Alpha-glucosidase MAL62 (Saccharomyces cerevisiae, UniProt P07265); test: Mixed-type inhibition of yeast alpha-glucosidase by Lineweaver-Burk plot analysis
T1 sequence (P07265 whole entry): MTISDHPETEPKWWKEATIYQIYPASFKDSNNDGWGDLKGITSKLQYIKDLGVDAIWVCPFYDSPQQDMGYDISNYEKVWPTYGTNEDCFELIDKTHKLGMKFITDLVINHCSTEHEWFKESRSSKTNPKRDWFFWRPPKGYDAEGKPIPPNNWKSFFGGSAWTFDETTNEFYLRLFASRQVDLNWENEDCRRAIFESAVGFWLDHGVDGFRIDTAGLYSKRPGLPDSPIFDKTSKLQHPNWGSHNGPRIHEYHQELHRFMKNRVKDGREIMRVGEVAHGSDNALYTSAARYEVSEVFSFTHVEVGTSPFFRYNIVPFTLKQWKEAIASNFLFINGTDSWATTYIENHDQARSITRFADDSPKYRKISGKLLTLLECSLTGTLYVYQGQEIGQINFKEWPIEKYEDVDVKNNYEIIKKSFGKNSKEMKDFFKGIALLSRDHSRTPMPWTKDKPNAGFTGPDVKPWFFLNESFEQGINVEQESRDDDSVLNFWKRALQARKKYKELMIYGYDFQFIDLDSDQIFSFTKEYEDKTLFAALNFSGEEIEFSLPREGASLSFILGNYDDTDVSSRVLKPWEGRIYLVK

[2] = biological target: Alpha-glucosidase MAL62 (Saccharomyces cerevisiae) (UniProt P07265); test: (§1) Inhibition of yeast alpha-glucosidase using p-nitrophenyl-alpha-D-glucopyranoside as substrate preincubated for 10 min before substrate addition and measured after 10 min by spectrophotometry
Alpha-glucosidase MAL62 (Saccharomyces cerevisiae), sequence (P07265 whole entry): as above

Alpha-glucosidase MAL62 [3] = biological target: T1, Alpha-glucosidase MAL62; test: as §1
[4] = biological target: Alpha-glucosidase MAL62 (Saccharomyces cerevisiae) (UniProt P07265); test: Inhibition of yeast alpha-glucosidase using p-nitrophenyl-alpha-D-glucopyranoside as substrate preincubated at 300 uM for 10 min before substrate addition and measured after 10 min by spectrophotometry
Alpha-glucosidase MAL62 [5] = biological target: T1, Alpha-glucosidase MAL62; test: Uncompetitive inhibition of yeast alpha-glucosidase by Lineweaver-Burk plot analysis
Alpha-glucosidase MAL62 [6] = biological target: T1, Alpha-glucosidase MAL62; test: Competitive inhibition of yeast alpha-glucosidase by Dixon plot analysis
[7] = biological target: Alpha-glucosidase MAL62 (Saccharomyces cerevisiae) (UniProt P07265); test: Competitive inhibition of yeast alpha-glucosidase by Lineweaver-Burk plot analysis

SMILES | inhibition [2] | pIC50 (Alpha-glucosidase MAL62 [3]) | further results
COc1cc(/C=C/C(=O)NCCc2c[nH]c3ccc(O)cc23)cc(OC)c1O [N-SINAPOYL SEROTONIN] | Dose-dependent effect | 4.18 | pKi (Alpha-glucosidase MAL62 [1]): 3.95
COc1ccc(/C=C/C(=O)NCCc2c[nH]c3ccc(O)cc23)cc1 [N-P-METHOXY CINNAMOYL SEROTONIN] | Dose-dependent effect | < 3.52 | –
COc1cc(CCC(=O)NCCc2c[nH]c3ccc(O)cc23)ccc1O [N-DIHYDROFERULOYL SEROTONIN] | – | < 3.52 | –
O=C(CCc1ccc(O)c(O)c1)NCCc1c[nH]c2ccc(O)cc12 [N-DIHYDROCAFFEOYL SEROTONIN] | – | < 3.52 | –
COc1ccc(/C=C/C(=O)NCCc2c[nH]c3ccc(O)cc23)cc1O [N-ISOFERULOYL SEROTONIN] | Dose-dependent effect | < 3.52 | –
O=C(CCc1ccc(O)cc1)NCCc1c[nH]c2ccc(O)cc12 [N-DIHYDRO-P-COUMAROYLSEROTONIN] | – | < 3.52 | –
OC[C@H]1NC[C@H](O)[C@@H](O)[C@@H]1O [DUVOGLUSTAT] | – | 3.56 | –
O=C(O)/C=C/c1ccc(O)c(O)c1 [CAFFEIC ACID] | – | < 3.52 | inhibition [4]: 10.2%
O=C(O)/C=C/c1ccccc1 [CINNAMIC ACID] | – | < 3.52 | inhibition [4]: 4.5%
COc1cc(/C=C/C(=O)NCCc2c[nH]c3ccc(O)cc23)ccc1O [N-FERULOYL SEROTONIN] | Dose-dependent effect | 4.00 | pKi (Alpha-glucosidase MAL62 [1]): 3.89
O=C(CCc1ccccc1)NCCc1c[nH]c2ccc(O)cc12 [N-DIHYDROCINNAMOYL SEROTONIN] | – | < 3.52 | –
COc1ccc(/C=C/C(=O)NCCc2c[nH]c3ccc(O)cc23)cc1OC [N-3,4-DIMETHOXY CINNAMOYL SEROTONIN] | Dose-dependent effect | < 3.52 | –
O=C(/C=C/c1ccc(O)c(O)c1)NCCc1c[nH]c2ccc(O)cc12 [N-CAFFEOYLSEROTONIN] | Dose-dependent effect | 4.32 | pKi (Alpha-glucosidase MAL62 [5]): 4.19
COc1cc(/C=C/C(=O)O)cc(OC)c1O [SINAPINATE] | – | 3.84 | –
COc1cc(/C=C/C(=O)O)ccc1O [FERULATE] | – | < 3.52 | –
O=C(/C=C/c1ccc(O)cc1)NCCc1c[nH]c2ccc(O)cc12 [N-P-COUMAROYL SEROTONIN] | Dose-dependent effect | 4.33 | pKi (Alpha-glucosidase MAL62 [5]): 4.09
COc1cc(CCC(=O)NCCc2c[nH]c3ccc(O)cc23)cc(OC)c1O [N-DIHYDROSINAPOYL SEROTONIN] | – | < 3.52 | –
O=C(/C=C/c1ccccc1)NCCc1c[nH]c2ccc(O)cc12 [N-CINNAMOYL SEROTONIN] | Dose-dependent effect | 4.09 | pKi (Alpha-glucosidase MAL62 [6]): 3.88; inhibition [7]: Active
O=C(O)/C=C/c1ccc(O)cc1 [COUMARIC ACID] | – | < 3.52 | inhibition [4]: 4.9%
NCCc1c[nH]c2ccc(O)cc12 [SEROTONIN] | – | < 3.52 | inhibition [4]: 25.6%
